How the values were obtained:
[1] = test system: inflammatory cells infiltrating into the anterior chamber of eye; assay: UV-induced photokeratitis in Sult2B1b gene knockout mice, eye drops; assay type: in vivo, mouse; conditions: eye drops before and after UV irradiation
From the text: As a result of analyzing UV-induced photokeratitis in Sult2B1b gene heterozygous mice (+/−) and Sult2B1b gene knockout mice (−/−), atrophy of the corneal epithelial layer was comparably observed in both mice. Therefore, the eyeball section of each of the mice was subjected to hematoxylin-eosin (HE) staining and observed using an optical microscope. Thereafter, cholesterol 3-sulfate was applied to the eyes of the Sult2B1b gene knockout mouse (−/−) before and after UV irradiation, and the total number of inflammatory cells infiltrating the anterior chamber of eye was counted. As a control, mouse for whom only a vehicle was applied to its eyes was used.

[2] = molecular target: T1, protein composed of the lobe B and the lobe C of the DHR-2 domain of DOCK2 (Homo sapiens, UniProt Q92608); assay: ELISA binding of steroid compounds to DHR-2 domain of DOCK2; conditions: steroid immobilized at 100 μg/ml, protein 2 μg/mL
T1 construct: the HIS-SUMO tagged protein composed of the lobe B and the lobe C of the DHR-2 domain of DOCK2; made in house; host or cells: E. coli Arctic express DE3 (pET28a)
T1 sequence (Q92608 1196-1622): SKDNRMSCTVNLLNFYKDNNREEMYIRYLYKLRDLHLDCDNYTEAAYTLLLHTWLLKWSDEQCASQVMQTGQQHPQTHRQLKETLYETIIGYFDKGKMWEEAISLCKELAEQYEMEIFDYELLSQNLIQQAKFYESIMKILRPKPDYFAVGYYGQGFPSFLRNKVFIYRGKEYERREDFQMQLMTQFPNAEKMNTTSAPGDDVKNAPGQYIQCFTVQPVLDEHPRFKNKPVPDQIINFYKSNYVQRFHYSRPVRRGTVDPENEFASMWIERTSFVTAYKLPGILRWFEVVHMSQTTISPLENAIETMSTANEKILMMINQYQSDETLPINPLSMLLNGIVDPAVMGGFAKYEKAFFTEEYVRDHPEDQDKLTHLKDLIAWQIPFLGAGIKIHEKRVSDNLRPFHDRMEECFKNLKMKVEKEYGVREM
Description: First, various steroid compounds prepared at 100 μg/ml by using 100% methanol were added in an amount of 50 μL to a 96-well plate for ELISA (trade name “Immulon 4HBX”, Thermo Scientific) and immobilized for 1 hour in a clean bench by air drying. Subsequently, 5% bovine serum albumin (BSA) diluted with TBS (20 mM Tris-HCl-150 mM NaCl, pH 7.5) was added thereto in an amount of 180 μL, the steroid compounds were incubated for 6 hours at 4° C., and the wells were blocked. Thereafter, each of the wells was rinsed three times with 180 μL of PBS-0.01% Tween-20. […] Then, each of the wells was rinsed three times with 180 μL of PBS-0.01% Tween-20. Subsequently, horseradish peroxidase (HRP)-labeled histidine probe (Thermo Scientific) diluted 5,000× was added in an amount of 100 μL to each well, and allowed to incubate for 1.5 hours at room temperature. Thereafter, each of the wells was rinsed three times with 180 μL of PBS-0.01% Tween-20, a 3,3′,5,5′-tetramethyl benzidine (TMB) solution (Thermo Scientific) as an HRP chromogenic substrate was added in an amount of 100 μL to each well so as to initiate a chromogenic reaction, and a stop solution (0.16 M sulfuric acid, Thermo Scientific) was added in an amount of 100 μL to each well so as to stop the reaction. Then, the absorbance at a wavelength of 450 nm was measured.

Trio = molecular target: T2, Trio (Homo sapiens, UniProt O75962); assay: in-vitro GEF assay, Rac activation by Trio (Experimental Example 1); assay type: biochemical
T2 construct: a DH-PH domain of the Trio protein and the Tiam protein; Histidine-SUMO (N); made in house; host or cells: E. coli Arctic express DE3 (pET28a)
Description: The selectivity of the effect of inhibiting the GEF of DOCK2 by cholesterol 3-sulfate was examined. All of DOCK2, Trio, and Tiam are GEFs activating Rac. In the presence of serially diluted cholesterol 3-sulfate, the Rac activation ability of a DOCK2 protein, a Trio protein, and a Tiam protein was measured by in-vitro GEF assay. For the in-vitro GEF assay, a labeled GTP (trade name, “Bodipy-FL-GTP”, manufactured by Invitrogen) was used, because it has a property of increasing fluorescence intensity when binds to Rac by the action of GEF. […]
During the reaction, the change in the fluorescence intensity of Bodipy-FL-GPT was monitored using a spectrofluorometer Enspire manufactured by PerkinElmer Inc (excitation wavelength: 488 nm, emission wavelength: 514 nm). By calculation, the values obtained by the measurement were corrected such that the fluorescence intensity became 0 at a reaction starting point (0 second).
Then, by using software (trade name “GraphPad Prism 5”, manufactured by GraphPad Software Inc.), an approximation curve was created which is obtained in a case where the calculated corrected values are plotted on the y-axis and time (t) is plotted on the x-axis. […]

[3] = test system: neutrophils isolated from the mouse bone marrow; assay: neutrophil migration assay 1 (EZ-TAXIScan, fMLP gradient, pretreated cells); assay type: cell-based; conditions: pretreated 1 hour, fMLP gradient 0 to 10 μM
Description: The influence of cholesterol 3-sulfate on a migration speed of neutrophils was examined. More specifically, in the presence of cholesterol 3-sulfate at a predetermined concentration or in the presence of DMSO alone (vehicle control), neutrophils isolated from the mouse bone marrow were incubated for 1 hour at room temperature in 20 mM HEPES-NaOH (pH 7.3)-0.1% BSA-containing RPMI-1640 (Taxiscan medium). The concentration of DMSO was adjusted such that the final concentration of DMSO became 0.2% in all samples.
Then, the pre-treated cells were loaded on wells of one side of the chamber of EZ-TAXIScan (Effector Cell Institute, Inc). After 1 μL of fMLP in a Taxiscan medium was added at a concentration of 10 μM to wells of the other side 260 μm distant from the above wells, neutrophils were allowed to migrate in the presence of a fMLP gradient (0 to 10 μM). Phase-contrast micrographs were obtained for 20 minutes at an interval of 30 seconds, and the trace and speed of neutrophils were analyzed by using manual tracking of the Image J program and a chemotaxis and migration tool.

Structure (SMILES): CC(C)CCC[C@@H](C)[C@H]1CC[C@H]2[C@@H]3CC=C4C[C@@H](OS(=O)(=O)O)CC[C@]4(C)[C@H]3CC[C@]12C [C3S, cholesterol 3-sulfate]
- UV irradiation-induced infiltration of inflammatory cells into the anterior chamber of eye [1]: inhibited
- binding to the protein composed of lobe B and lobe C of the DHR-2 domain of DOCK2 (ELISA, absorbance 450 nm) [2]: specifically binds
- IC50 (Trio): > 300 µM
- migration of neutrophils (migration speed) in response to fMLP [3]: markedly inhibited

— patent US12213984B2, “Immunoregulatory agent” (KYUSHU UNIVERSITY, NATIONAL UNIVERSITY CORPORATION, priority 2015, dated 2025)
